# According to publication PMC9114338 (Scientific Reports, 2022):
# Read-outs that look alike come from different tables or passages of the source.
# Columns and labels:
# [1] = rat, in vivo; cited from earlier work
# [2] = rapidly converts to TFV; cited from earlier work
# [3] = Simulation of plasma TFV and PBMC TFV-DP following TAF delivery from implants; set-up: species or system C57BL/6 J mice; settings: dose-dependent
# Protocol: All other parameters were unmodified from Table 2. Our starting hypothesis was that the difference between SQ injection and long-acting SQ delivery via implant would be strictly related to the implant release rate. Once the drug was released from the device, it was hypothesized to be transferred from the SQ pocket to body circulation via the same mechanism and governed by the same parameters as by SQ injection, and therefore the same model was employed.
# Compartmental analyses were performed in Phoenix software (version 8.3, Certara, Princeton, NJ) using a published, simple, structural PK model describing the TFV kinetics. IV and SQ data were modeled simultaneously. Due to the destructive nature of the blood sampling, data were modeled using a naïve-pooled algorithm, without inter-animal variability. The resulting systemic parameters, along with the implant in vivo release rates on a per animal basis, were used to co-model (predict) concentration data in mice following during implant dosing.
# HIV-1 [4] = system: HIV-1
# Protocol: The BLT hu-mouse model has been used extensively in efficacy studies involving HIV-1 prevention research[54]–[58]. […] The mice were challenged with HIV-1 either rectally or vaginally 6 h post dosing and monitored for infection status for 12 weeks.
# The generation of BLT hu-mice was performed as described in Baum et al.[58], and the references contained therein.
# Vaginal or rectal challenge with HIV-1 was performed 6 h after dosing and HIV-1 infection status was monitored by quantifying viral RNA concentration in peripheral blood (plasma) at 1, 2, 3, 6, and 12 weeks post challenge as fully described in Baum et al.[58], and the references contained therein.
# [5] = cited from earlier work
# OAT3 = settings: in vitro studies; cited from earlier work
# [6] = assay type: in vivo, C57BL/6 J mice; settings: Day 28, pathologist evaluation, low and high doses
# Protocol: Toxicity was evaluated by clinical observations, cage-side observations (twice daily), and body weight (weekly). Formaldehyde-fixed dermal tissue specimens (one per animal) were paraffin-embedded, sectioned, and H&E stained using established methods (JIT Labs, jit-labs.com). The slides were evaluated for microscopic findings by a certified pathologist (Vet Path Services, Inc., Mason, OH). Histopathology grades were assigned as grade 1 (minimal), grade 2 (mild), grade 3 (moderate), grade 4 (marked), or grade 5 (severe) based on an increasing extent of overall change.
# OAT1 = settings: in vitro studies; cited from earlier work
# [7] = MALDI imaging mass spectrometry of dermal tissues adjacent to the implant; assay type: in vivo, C57BL/6 J mice; settings: for Detection by MALDI-IMS in dermal tissue samples during implant TAF delivery: all medicated specimens; for Spatial distribution in dermal tissue sections (MALDI-IMS): high-releasing (0.58 mg d^-1) implants, D3–D28; for MALDI-IMS signal and localization with implant in situ: low-releasing (0.23 mg d^-1) implants, Day 14, 100 µm resolution
# Protocol: The used implants, the surrounding capsule, and the encasing dermal tissue were removed as a block in accordance with ISO 10993-6 guidelines, processed and stored, as described elsewhere. Briefly, the capsule was cut longitudinally and rolled open, taking care not to disrupt the architecture of the tissue or to damage the used implant. A portion of the tissue specimen was placed into 4% paraformaldehyde solution (phosphate-buffered at pH 7.2), and stored at 4 °C, for histopathology and two other portions were flash-frozen in liquid nitrogen for drug concentration analysis as well as for drug spatial distribution analysis by MALDI-IMS (vide infra).
# Frozen mouse tissue specimens were shipped to Vanderbilt University on dry ice and stored at − 80 °C prior to use. Tissues were removed from the − 80 °C freezer and placed in a − 20 °C cryostat (CM 1900, Leica Biosystems, Buffalo Grove, IL) and sectioned. Tissue samples that had been prepared via removal of the used implant were affixed to the cryostat chuck with optimal cutting temperature (OCT) polymer and were cut on the cryostat into 12 µm thick sections for imaging mass spectrometry and H&E staining.
# Tissue samples that still contained the implant in place were embedded in OCT prior to sectioning. In order to minimize the artifactual signal from the TAF powder after sectioning (the act of the cryostat blade cutting through an intact implant distributed residual TAF powder that still remained in the used implant onto the surrounding tissue section), house vacuum was used to remove visible TAF powder, followed by lightly running nitrogen gas over the plate to remove any additional loose powder from the slide.
# The tissue sections were thaw-mounted onto indium-tin oxide coated glass slides for imaging (Delta Technologies, Ltd, Loveland, CO). The tissue sections were left to dry for at least 15 min in a desktop vacuum desiccator prior to matrix application. […] For 9AA, four passes were applied at 85 °C in a crisscross pattern, with a 700 mm min^-1 stage velocity, 2 mm track spacing, and 0.15 mL min^-1 flow rate. For DHB the same method was used, except eight passes were applied and the stage velocity was 1300 mm min^-1.
# Flash-frozen dermal tissue samples collected adjacent to the TAF implants and sectioned were analyzed with a linear ion trap mass spectrometer equipped with a MALDI source and a nitrogen laser (LTQ XL, Thermo Scientific, Waltham, MA). The structures of compounds of interest are shown in Scheme 1. Targeted MS/MS methods were optimized for each compound using authentic samples as standards, with the final parameters shown in Appendix A under Supplementary Information. Pseudo-selected reaction monitoring mode was used for imaging by isolating precursor ions with a 1 Da window, fragmenting them, and acquiring full product ion mass spectra at each pixel. TFV, TFV-MP, and TFV-DP were analyzed in negative ion mode, while TAF, Metabolite X, and Metabolite Y were analyzed in positive ion mode. In most cases, after imaging, the matrix was removed and the tissue section that had been imaged was H&E stained for better image registration with tissue morphology. Standard images were acquired at either 50 or 100 µm spatial resolution. Reconstructed ion images were generated in ImageQuest software (Thermo Scientific, Waltham, MA) by plotting the intensity of the diagnostic fragment ion or ions as a function of location across the tissue surface.
# [8] = set-up: method as in PMID 23600365; settings: healthy individuals; cited from earlier work
# [9] = Subdermal TAF implant pharmacokinetic mouse study; assay type: in vivo; settings: low- and high-releasing implants
# Text: Two study groups are described here: one low-releasing and one high-releasing implant group. Animals (N = 3 per implant group) were sacrificed at the following timepoints: Day 3, 7, 14, 21, and 28 (15 mice total per implant group).
# [10] = Intravenous TAF pharmacokinetic mouse study (plasma, PBMC, tissue homogenate); assay type: in vivo, C57BL/6 J mice; settings: for half-life: C57BL/6 J, mouse, iv, 0.5 mg
# Protocol: C57BL/6 J Mice (9 groups of 4 animals each; 36 mice total) were administered the study product (0.5 mg dose, 0.1 mL) by intravenous (IV) injection. Animals (N = 4) were sacrificed at the following timepoints: Day 1 (1, 3, 6, 12, 24 h), Day 2, 4, 8, and 14. Blood was collected by exsanguination along with select tissue specimens (vide infra).
# The isolation of plasma and PBMCs from blood samples was carried out in a laminar flow hood using aseptic techniques, and the entire process was completed in under 45 min to minimize analyte metabolism. Blood was transferred into collection tubes containing sodium citrate (final concentration, 0.4% w/v), diluted using one volume equivalent of 1 × PBS solution, and mixed by inversion. The minimum final volume was 4.0 mL. Prior to the addition of blood samples, Ficoll-Paque media (MilliporeSigma, Burlington, MA, 3.2 mL) was transferred into a 12 mL LeucoSep tube (Greiner, Monroe, NC) and centrifuged at 1000 g for 20 s at room temperature, causing the media to settle just below the porous barrier. The homogenous, diluted blood-PBS mixture was transferred into the prepared LeucoSep tube and centrifuged at 1000 g for 10 min at room temperature, resulting in the formation of three layers above the porous barrier: (A) top layer, consisting of the plasma fraction; (B) middle, interface layer, containing the PBMCs; and (C) thin lower layer, just above the barrier, consisting of Ficoll-Paque media. Layer A (plasma) was transferred to empty 1.5 mL microfuge tubes in 0.5 mL aliquots, and flash-frozen in liquid nitrogen. Layer B (PBMCs) was transferred into an empty 15 mL centrifuge tube and PBS added to the 12 mL mark, followed by gentle inversion mixing. The suspension was centrifuged at 400 g for 15 min, the supernatant removed, and the pellet resuspended in PBS (10 mL) by gentle pipetting. An aliquot (10 µL) was removed from the suspension for cell counting and the remaining sample was centrifuged at 400 g for 15 min. The supernatant was removed without disturbing the cell pellet, which was treated with ice-cold 70% v/v methanol in molecular-grade water (1.0 mL). The mixture was mixed lightly by vortex agitation to lyse the cells, followed by transfer to a 2.0 mL cryovial that was flash-frozen in liquid nitrogen.
# Vaginal, rectal, spleen, and thymus tissue samples were collected from sacrificed animals at Day 1 (12, 24 h), Day 4, and 8; rectal tissue samples were not collected at 12 h. The samples were transferred into pre-weighed sample tubes, weighed, and flash-frozen in liquid nitrogen.
# (§1) PBMC results were normalized to the number of cells and reported as fmol/10^6 cells or as intracellular concentration based on cell volume, in nM. Tissue results were normalized to sample mass and reported as ng mg^-1 or fmol mg^-1.
# HIV-1 [11] = settings: cited from earlier work
# [12] = Subcutaneous TAF injection pharmacokinetic mouse study; assay type: in vivo, C57BL/6 J mice; settings: C57BL/6 J, PBMCs, 0.5 mg, read-out: PBMC TFV-DP t1/2 (converted)
# Protocol: C57BL/6 J Mice (12 groups of 4 animals each; 48 mice total) were administered the study product (0.5 mg dose, 0.1 mL) described above by subcutaneous (SQ) injection. Animals (N = 4) were sacrificed at the following timepoints: Day 1 (1, 3, 6, 12, 24 h), Day 2, 4, 6, 8, 10, 12, and 14. Blood was collected by exsanguination and processed as described above.
# as §1
# [13] = oral TAF 6 h before rectal HIV-1 challenge
# [14] = oral TAF 6 h before vaginal HIV-1 challenge
smiles,measurement,setting,value
O=C(O)C[C@@H]1Cc2ccc(OCCCNc3ccccn3)cc2Cc2ccccc21 [SB-265123],Apparent oral F,[1],exceeding 100%
"CC(C)OC(=O)[C@H](C)N[P@](=O)(CO[C@H](C)Cn1cnc2c(N)ncnc21)Oc1ccccc1 [TAF, tenofovir alafenamide]",Stability in mouse plasma,[2],highly unstable
same,Impurities formed during in vivo implant use,HPLC of retrieved implants,less than 1%
same,TAF peak area of total peak area (TAF and decomposition products) in retrieved implants,"HPLC, irrespective of the implant group",> 98%
same,Exposure scaling (apparent bioavailability) from subdermal implants vs SQ or IV injection,[3],4–5 ×
same,Protection from rectal HIV-1 acquisition,HIV-1 [4]; oral TAF,fully protective
same,Protection from vaginal HIV-1 acquisition,HIV-1 [4]; oral TAF,fully protective
same,ED50,HIV-1 [4]; [13],1.27 µmol
same,ED90,HIV-1 [4]; [13],1.62 µmol
same,ED50,HIV-1 [4]; [14],1.17 µmol
same,ED90,HIV-1 [4]; [14],2.15 µmol
same,m-value ± SEM (median-effect model),HIV-1 [4]; rectal,9.18 ± 1.94
same,m-value ± SEM (median-effect model),HIV-1 [4]; vaginal,3.60 ± 0.22
same,Efflux transport in the intestine,[5],vulnerable to efflux transport
same,Substrate for renal uptake transporter OAT3,OAT3,not believed to be a substrate
same,Effect of TAF dose on microscopic appearance of tissues,[6],no effects
same,Substrate for renal uptake transporter OAT1,OAT1,not believed to be a substrate
same,Detection by MALDI-IMS in dermal tissue samples during implant TAF delivery,[7],detected
same,Spatial distribution in dermal tissue sections (MALDI-IMS),[7],localized close to the implant
same,MALDI-IMS signal and localization with implant in situ,[7],most abundant signals
C[C@H](Cn1cnc2c(N)ncnc21)OC[P@@](=O)(O)N[C@@H](C)C(=O)O [Metabolite X],Detection by MALDI-IMS in dermal tissue samples during implant TAF delivery,[7],detected
same,Spatial distribution in dermal tissue sections (MALDI-IMS),[7],localized close to the implant
same,MALDI-IMS signal and localization with implant in situ,[7],localized close to the implant
C[C@H](Cn1cnc2c(N)ncnc21)OCP(=O)(O)OP(=O)(O)O [TFV-MP],Detection by MALDI-IMS in dermal tissue samples during implant TAF delivery,[7],detected
same,Spatial distribution in dermal tissue sections (MALDI-IMS),[7],distributed homogeneously throughout the samples
same,MALDI-IMS signal and localization with implant in situ,[7],weak
"C[C@H](Cn1cnc2c(N)ncnc21)OCP(=O)(O)OP(=O)(O)OP(=O)(O)O [TFV-DP, TFV diphosphate]",Intracellular (PBMC) TFV-DP half-life,[8],48 h
same,"Share of total TFV species present as TFV-DP, dermal tissue adjacent to TAF implants",[9],less than 1%
same,half-life,"[10]; PBMCs, read-out: PBMC TFV-DP t1/2 (converted)",41 h
same,"Share of total TFV present as TFV-DP, vaginal tissue",[10]; IV TAF dosing,5.1%
same,"Median vaginal x(TFV-DP) lower than rectal, spleen, thymus","[10]; IV TAF, depending on the compartment",4.7–6.7 fold
same,half-life,"[10]; female, rectal tissue, read-out: Terminal half-life in rectal tissue (NCA) (converted)",26.4 h
same,half-life,"[10]; female, spleen, read-out: Terminal half-life in spleen (NCA) (converted)",23.3 h
same,half-life,"[10]; female, thymus, read-out: Terminal half-life in thymus (NCA) (converted)",23.3 h
same,half-life,"[10]; female, vaginal tissue, read-out: Terminal half-life in vaginal tissue (NCA) (converted)",31.2 h
same,Duration of TFV-DP concentrations in tissues,[10]; single bolus IV TAF administration,> 8 days
same,"TFV-DP mole fraction x(TFV-DP), vaginal tissue, median (IQR)","[10]; tissue homogenate, IV TAF dosing",0.051 (0.022–0.080)
same,TFV-DP EC90 (more conservative),HIV-1 [11]; corrected for TFV-DP loss on cryopreservation,24 to 48 fmol/10^6 cells
same,PBMC TFV-DP concentration associated with 90% protection,"HIV-1 [11]; post hoc analysis of iPrEX, cryopreserved PBMCs",16 fmol/10^6 cells
same,half-life,[12],17 h
same,Detection by MALDI-IMS in dermal tissue samples during implant TAF delivery,[7],detected
same,Spatial distribution in dermal tissue sections (MALDI-IMS),[7],distributed homogeneously throughout the samples
same,MALDI-IMS signal and localization with implant in situ,[7],weak
CC(C)OC(=O)[C@H](C)N[P@](=O)(O)CO[C@H](C)Cn1cnc2c(N)ncnc21 [Metabolite Y],Detection by MALDI-IMS in dermal tissue samples during implant TAF delivery,[7],detected
same,Spatial distribution in dermal tissue sections (MALDI-IMS),[7],localized close to the implant
same,MALDI-IMS signal and localization with implant in situ,[7],localized close to the implant
